From PubChem BioAssay AID328 (DTP/NCI, 2004)
Values joined by “and” are separate entries in the source; they are usually repeats but may differ in a detail not shown here. Identical values can stand only once. Toxic doses and inconclusive results are not listed.

System: BDF1 mice, P388 leukemia ip, median survival T/C
Assay: NCI In Vivo Anticancer Drug Screen. Data for tumor model P388 Leukemia (intraperitoneal) in B6D2F1 (BDF1) mice
Conditions: endpoint: median survival time, higher = longer survival
How it was run: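 Antitumour effect was judged in vivo: survival in drug-treated mice, normalised to that of vehicle-dosed controls, gives the reported T/C.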

[1] = dose: 25.0 mg/kg/injection, schedule: Q01DX009 (ip), vehicle: saline
[2] = dose: 50.0 mg/kg/injection, schedule: Q01DX009 (ip), vehicle: saline
[3] = dose: 100.0 mg/kg/injection, schedule: Q01DX009 (ip), vehicle: saline
[4] = dose: 12.5 mg/kg/injection, schedule: Q01DX009 (ip), vehicle: saline
[5] = dose: 50.0 mg/kg/injection, schedule: Q01DX009 (ip), vehicle: saline with Tween-80
[6] = dose: 100.0 mg/kg/injection, schedule: Q01DX009 (ip), vehicle: saline with Tween-80
[7] = dose: 200.0 mg/kg/injection, schedule: Q01DX009 (ip), vehicle: saline with Tween-80
[8] = dose: 12.5 mg/kg/injection, schedule: Q04DX003 (ip), vehicle: saline
[9] = dose: 25.0 mg/kg/injection, schedule: Q04DX003 (ip), vehicle: saline
[10] = dose: 25.0 mg/kg/injection, schedule: Q01DX009 (ip), vehicle: saline with Tween-80
[11] = dose: 100.0 mg/kg/injection, schedule: Q04DX003 (ip), vehicle: saline with Tween-80

`Cc1c([C@H](C)[C@@H]2NC[C@@H](C)C[C@H]2O)ccc2c1C[C@H]1[C@H]2CC=C2C[C@@H](O)CC[C@@]21C` was tested, and the T/C (dose: 3.0 mg/kg/injection, schedule: Q01DX010 (ip), vehicle: carboxymethylcellulose (CMC)) was 115 % of control.
For `NCCCOc1ccc([N+](=O)[O-])cc1Cl`, the T/C [1] was 105 % of control, the T/C [2] was 105 % of control and the T/C [3] was 104 % of control.
For `COc1cc(OC)c(NC(=S)Nc2cc(C)ccc2OC)cc1Cl`, the T/C (dose: 12.5 mg/kg/injection, schedule: Q01DX009 (ip), vehicle: DMSO) was 97 % of control and the T/C (dose: 25.0 mg/kg/injection, schedule: Q01DX009 (ip), vehicle: DMSO) was 93 % of control.
`CCCCCCCCCCC[N+](C)(C)CC(O)C[N+](C)(C)CCCCCCCCCCC` was tested, and the T/C (dose: 3.13 mg/kg/injection, schedule: Q01DX009 (ip), vehicle: saline) was 102 % of control, the T/C (dose: 6.25 mg/kg/injection, schedule: Q01DX009 (ip), vehicle: saline) was 111 % of control and the T/C [4] was 118 % of control.
For `O=C(O)c1ccccc1NSc1ccccc1[N+](=O)[O-]`, the T/C [5] was 97 % of control, the T/C [6] was 109 % of control and the T/C [7] was 111 % of control.
With `O=C(CBr)c1cccnc1` the T/C (dose: 6.25 mg/kg/injection, schedule: Q04DX003 (ip), vehicle: saline) was 104 % of control, the T/C [8] was 104 % of control and the T/C [9] was 95 % of control.
For `C=CC(=O)NCNC(=O)C=C`, the T/C (dose: 132.0 mg/kg/injection, schedule: Q04DX003 (ip), vehicle: saline with Tween-80) was 118 % of control and the T/C (dose: 300.0 mg/kg/injection, schedule: Q04DX003 (ip), vehicle: saline with Tween-80) was 222 % of control.
For `C(#CCN1CCCC1)CCCN1CCCC1`, the T/C [10] was 111 % of control, the T/C [5] was 92 % of control and the T/C (dose: 50.0 mg/kg/injection, schedule: Q04DX003 (ip), vehicle: saline with Tween-80) was 91 % of control. For the same compound, the T/C [6] was 92 % of control and the T/C [11] was 91 % of control.
For `Clc1ccc(C2(Cn3ccnc3)OCC(COc3ccc(-c4ccccc4)cc3)O2)c(Cl)c1` (stereo not drawn), the T/C [5] was 108 % of control, the T/C [6] was 101 % of control and the T/C [7] was 99 % of control.
`CC/C(=C(/CC)c1ccc(O)cc1)c1ccc(O)cc1` was tested, and the T/C (dose: 12.5 mg/kg/injection, schedule: Q01DX009 (ip), vehicle: carboxymethylcellulose (CMC)) was 105 % of control, the T/C (dose: 12.5 mg/kg/injection, schedule: Q01DX010 (ip), vehicle: saline) was 100 % of control and 110 % of control and the T/C (dose: 25.0 mg/kg/injection, schedule: Q01DX009 (ip), vehicle: carboxymethylcellulose (CMC)) was 89 % of control and 93 % of control. For the same compound, the T/C (dose: 25.0 mg/kg/injection, schedule: Q01DX010 (ip), vehicle: saline) was 110 % of control, the T/C (dose: 50.0 mg/kg/injection, schedule: Q01DX008 (ip), vehicle: saline with Tween-80) was 114 % of control and 120 % of control and the T/C (dose: 50.0 mg/kg/injection, schedule: Q01DX009 (ip), vehicle: carboxymethylcellulose (CMC)) was 97 % of control. The T/C (dose: 50.0 mg/kg/injection, schedule: Q01DX010 (ip), vehicle: saline) was 100 % of control and 115 % of control, the T/C (dose: 100.0 mg/kg/injection, schedule: Q01DX008 (ip), vehicle: saline with Tween-80) was 110 % of control and 116 % of control and the T/C (dose: 100.0 mg/kg/injection, schedule: Q01DX009 (ip), vehicle: carboxymethylcellulose (CMC)) was 88 % of control and 90 % of control. For the same compound, the T/C (dose: 100.0 mg/kg/injection, schedule: Q01DX010 (ip), vehicle: saline) was 90 % of control and 95 % of control, the T/C (dose: 200.0 mg/kg/injection, schedule: Q01DX008 (ip), vehicle: saline with Tween-80) was 111 % of control and 112 % of control and the T/C (dose: 200.0 mg/kg/injection, schedule: Q01DX009 (ip), vehicle: carboxymethylcellulose (CMC)) was 114 % of control. For the same compound, the T/C (dose: 400.0 mg/kg/injection, schedule: Q01DX008 (ip), vehicle: saline with Tween-80) was 112 % of control.
With `COc1cc(C)c(C2NC(=O)c3ccccc3N2)cc1C` (stereo not drawn) the T/C (dose: 200.0 mg/kg/injection, schedule: Q01DX009 (ip), vehicle: Klucel (hydroxypropylcellulose) (HPC)) was 155 % of control and 170 % of control and the T/C (dose: 265.0 mg/kg/injection, schedule: Q01DX009 (ip), vehicle: Klucel (hydroxypropylcellulose) (HPC)) was 150 % of control.
`COc1ccc2c(c1OC)C(=O)NC2=O` was tested, and the T/C (dose: 50.0 mg/kg/injection, schedule: Q01DX008 (ip), vehicle: Klucel (hydroxypropylcellulose) (HPC)) was 108 % of control, the T/C (dose: 50.0 mg/kg/injection, schedule: Q04DX003 (ip), vehicle: Klucel (hydroxypropylcellulose) (HPC)) was 100 % of control and the T/C (dose: 100.0 mg/kg/injection, schedule: Q01DX008 (ip), vehicle: Klucel (hydroxypropylcellulose) (HPC)) was 88 % of control. The T/C (dose: 100.0 mg/kg/injection, schedule: Q04DX003 (ip), vehicle: Klucel (hydroxypropylcellulose) (HPC)) was 100 % of control and the T/C (dose: 200.0 mg/kg/injection, schedule: Q04DX003 (ip), vehicle: Klucel (hydroxypropylcellulose) (HPC)) was 90 % of control.
For `COc1ccc(-c2csc(=[N+]3CCCCC3)s2)cc1`, the T/C [8] was 105 % of control, the T/C [9] was 122 % of control and the T/C (dose: 50.0 mg/kg/injection, schedule: Q04DX003 (ip), vehicle: saline) was 87 % of control.
In the case of `CC1NC(=O)C2Cc3ccc(O)c(c3)Oc3cccc(c3)C(O)C(C(=O)N2C)N(C)C(=O)C(C)NC(=O)C(Cc2ccc(O)c(O)c2)N(C)C(=O)C(C)NC1=O` (stereo not drawn), the T/C (dose: 0.25 mg/kg/injection, schedule: Q01DX009 (ip), vehicle: distilled water + Tween-80) is reported as 94 % of control, the T/C (dose: 0.5 mg/kg/injection, schedule: Q01DX009 (ip), vehicle: distilled water + Tween-80) is reported as 99 % of control and the T/C (dose: 1.0 mg/kg/injection, schedule: Q01DX009 (ip), vehicle: distilled water + Tween-80) is reported as 94 % of control. The T/C (dose: 2.0 mg/kg/injection, schedule: Q01DX009 (ip), vehicle: distilled water + Tween-80) was 96 % of control, the T/C (dose: 4.0 mg/kg/injection, schedule: Q01DX009 (ip), vehicle: distilled water + Tween-80) was 99 % of control and the T/C (dose: 8.0 mg/kg/injection, schedule: Q01DX009 (ip), vehicle: distilled water + Tween-80) was 99 % of control.
For `CC1(C)COC(c2ccc(C(C)(C)C)cc2C(O)(c2cc(C(C)(C)C)ccc2C2=NC(C)(C)CO2)c2cc(C(C)(C)C)ccc2C2=NC(C)(C)CO2)=N1`, the T/C [11] was 92 % of control and 94 % of control, the T/C (dose: 200.0 mg/kg/injection, schedule: Q04DX003 (ip), vehicle: saline with Tween-80) was 94 % of control and the T/C (dose: 400.0 mg/kg/injection, schedule: Q04DX003 (ip), vehicle: saline with Tween-80) was 90 % of control and 94 % of control.
For `CC1(C)N=C(N)N=C(N)N1c1ccc(F)cc1`, the T/C (dose: 50.0 mg/kg/injection, schedule: Q01DX005 (ip), vehicle: Klucel (hydroxypropylcellulose) (HPC)) was 117 % of control.
With `NC(N)=Nc1ccc(S(=O)(=O)O)cc1` the T/C [4] was 108 % of control, the T/C [1] was 108 % of control and the T/C [2] was 91 % of control. For the same compound, the T/C [3] was 106 % of control.
With `N=C(N)c1ccc(OCCCOc2ccc(C(=N)N)cc2Br)c(Br)c1` the T/C (dose: 2.2 mg/kg/injection, schedule: Q01DX009 (ip), vehicle: saline) was 100 % of control, the T/C (dose: 3.3 mg/kg/injection, schedule: Q01DX009 (ip), vehicle: saline) was 118 % of control and the T/C (dose: 5.0 mg/kg/injection, schedule: Q01DX009 (ip), vehicle: saline) was 118 % of control. For the same compound, the T/C (dose: 25.0 mg/kg/injection, schedule: Q01DX009 (ip), vehicle: saline sonified) was 122 % of control.
`N=C(N)c1ccc(-c2ccc(-c3ccc(C(=N)N)cc3)o2)cc1` was tested, and the T/C (dose: 3.13 mg/kg/injection, schedule: Q01DX009 (ip), vehicle: saline with Tween-80) was 111 % of control and the T/C (dose: 6.25 mg/kg/injection, schedule: Q01DX009 (ip), vehicle: saline with Tween-80) was 119 % of control.
`CC1(C)CC(=O)N/C1=C\C1NC(=O)CC1(C)C` (stereo not drawn) was tested, and the T/C [6] was 104 % of control and the T/C [7] was 109 % of control.
`CSc1nc(N)nc2c1ncn2C1CC(O)C(CO)O1` (stereo not drawn) was tested, and the T/C [2] was 95 % of control, the T/C [3] was 95 % of control and 101 % of control and the T/C (dose: 200.0 mg/kg/injection, schedule: Q01DX009 (ip), vehicle: saline) was 100 % of control. The T/C (dose: 400.0 mg/kg/injection, schedule: Q01DX009 (ip), vehicle: saline) was 97 % of control.
In the case of `CC1(C)OCC(/C=C/C=N/Nc2ccc([N+](=O)[O-])cc2)O1` (stereo not drawn), the T/C (dose: 100.0 mg/kg/injection, schedule: Q01DX001 (ip), vehicle: saline with Tween-80) is reported as 105 % of control and the T/C (dose: 200.0 mg/kg/injection, schedule: Q01DX001 (ip), vehicle: saline with Tween-80) is reported as 110 % of control.
For `CCCCCCC#CC(=O)OC`, the T/C [10] was 106 % of control, the T/C [5] was 106 % of control and the T/C [6] was 109 % of control. For the same compound, the T/C [7] was 106 % of control.
For `CO[C@H](C)[C@](O)(C(=O)OCC1=CCN2CC[C@@H](O)[C@H]12)C(C)C`, the T/C (dose: 25.0 mg/kg/injection, schedule: Q01DX010 (ip), vehicle: carboxymethylcellulose (CMC)) was 111 % of control, the T/C (dose: 50.0 mg/kg/injection, schedule: Q01DX010 (ip), vehicle: carboxymethylcellulose (CMC)) was 111 % of control and the T/C (dose: 100.0 mg/kg/injection, schedule: Q01DX010 (ip), vehicle: carboxymethylcellulose (CMC)) was 111 % of control.
